Reference: ChEMBL document CHEMBL4393680, “Design, synthesis and biological evaluation of novel thioquinazolinone-based 2-aminobenzamide derivatives as potent histone deacetylase (HDAC) inhibitors” (Eur J Med Chem, 2019)

Assays:
[1] = test system: A-375; assay: Antiproliferative activity against human A375 cells assessed as reduction in cell growth at 8 uM incubated for 72 hrs by CCK-8 assay relative to control; assay type: functional; settings: A-375, 72 h
[2] = test system: SMMC-7721; assay: Induction of apoptosis in human SMMC7721 cells assessed as necrotic cells at 0.25 uM incubated for 48 hrs by Annexin-V-FITC/propidium iodide staining based flow cytometry (Rvb=1.88%); assay type: functional
[3] = test system: SMMC-7721; assay: Cell cycle arrest in human SMMC7721 cells assessed as accumulation at G0/G1 phase at 0.25 uM incubated for 48 hrs by propidium iodide staining based flow cytometry (Rvb=77%); assay type: functional
[4] = test system: A549; assay: Antiproliferative activity against human A549 cells assessed as reduction in cell growth at 2 uM incubated for 72 hrs by CCK-8 assay relative to control; assay type: functional; settings: A549, 72 h
[5] = test system: SMMC-7721; assay: Induction of apoptosis in human SMMC7721 cells assessed as viable cells at 4 uM incubated for 48 hrs by Annexin-V-FITC/propidium iodide staining based flow cytometry (Rvb=93.5%); assay type: functional; settings: SMMC-7721, 48 h, read-out: Activity
[6] = test system: SMMC-7721; assay: Induction of apoptosis in human SMMC7721 cells assessed as necrotic cells at 4 uM incubated for 48 hrs by Annexin-V-FITC/propidium iodide staining based flow cytometry (Rvb=1.88%); assay type: functional
[7] = test system: SMMC-7721; assay: Antiproliferative activity against human SMMC7721 cells assessed as reduction in cell growth incubated for 72 hrs by CCK-8 assay; assay type: functional, cell-based; settings: SMMC-7721, 72 h
[8] = test system: SMMC-7721; assay: Antiproliferative activity against human SMMC7721 cells assessed as reduction in cell growth at 2 uM incubated for 72 hrs by CCK-8 assay relative to control; assay type: functional; settings: SMMC-7721, 72 h
[9] = test system: SMMC-7721; assay: Induction of apoptosis in human SMMC7721 cells assessed as early apoptotic cells at 0.25 uM incubated for 48 hrs by Annexin-V-FITC/propidium iodide staining based flow cytometry (Rvb=2.88%); assay type: functional
[10] = test system: NIH3T3; assay: Cytotoxicity against mouse NIH/3T3 cells assessed as reduction in cell viability after 48 hrs by CCK8 assay; assay type: cell-based; settings: NIH3T3, 48 h
[11] = test system: SMMC-7721; assay: Induction of apoptosis in human SMMC7721 cells assessed as necrotic cells at 1 uM incubated for 48 hrs by Annexin-V-FITC/propidium iodide staining based flow cytometry (Rvb=1.88%); assay type: functional
[12] = test system: SMMC-7721; assay: Cell cycle arrest in human SMMC7721 cells assessed as accumulation at G0/G1 phase at 1 uM incubated for 48 hrs by propidium iodide staining based flow cytometry (Rvb=77%); assay type: functional
[13] = test system: SMMC-7721; assay: Induction of apoptosis in human SMMC7721 cells assessed as viable cells at 0.25 uM incubated for 48 hrs by Annexin-V-FITC/propidium iodide staining based flow cytometry (Rvb=93.5%); assay type: functional; settings: SMMC-7721, 48 h, read-out: Activity
[14] = test system: SMMC-7721; assay: Induction of apoptosis in human SMMC7721 cells assessed as early apoptotic cells at 1 uM incubated for 48 hrs by Annexin-V-FITC/propidium iodide staining based flow cytometry (Rvb=2.88%); assay type: functional
[15] = test system: SMMC-7721; assay: Cell cycle arrest in human SMMC7721 cells assessed as accumulation at S phase at 1 uM incubated for 48 hrs by propidium iodide staining based flow cytometry (Rvb=6.83%); assay type: functional
[16] = test system: SMMC-7721; assay: Cell cycle arrest in human SMMC7721 cells assessed as accumulation at S phase at 0.25 uM incubated for 48 hrs by propidium iodide staining based flow cytometry (Rvb=6.83%); assay type: functional
[17] = test system: HeLa; assay: Antiproliferative activity against human HeLa cells assessed as reduction in cell growth incubated for 72 hrs by CCK-8 assay; assay type: functional, cell-based
[18] = test system: SMMC-7721; assay: Cell cycle arrest in human SMMC7721 cells assessed as accumulation at G2/M phase at 4 uM incubated for 48 hrs by propidium iodide staining based flow cytometry (Rvb=16.17%); assay type: functional
[19] = test system: SMMC-7721; assay: Induction of apoptosis in human SMMC7721 cells assessed as late apoptotic cells at 4 uM incubated for 48 hrs by Annexin-V-FITC/propidium iodide staining based flow cytometry (Rvb=1.73%); assay type: functional
[20] = test system: HCT-116; assay: Antiproliferative activity against human HCT116 cells assessed as reduction in cell growth at 8 uM incubated for 72 hrs by CCK-8 assay relative to control; assay type: functional; settings: HCT-116, 72 h
[21] = test system: SMMC-7721; assay: Induction of apoptosis in human SMMC7721 cells assessed as viable cells at 1 uM incubated for 48 hrs by Annexin-V-FITC/propidium iodide staining based flow cytometry (Rvb=93.5%); assay type: functional; settings: SMMC-7721, 48 h, read-out: Activity
[22] = test system: HCT-116; assay: Antiproliferative activity against human HCT116 cells assessed as reduction in cell growth at 2 uM incubated for 72 hrs by CCK-8 assay relative to control; assay type: functional; settings: HCT-116, 72 h
[23] = test system: SMMC-7721; assay: Antiproliferative activity against human SMMC7721 cells assessed as reduction in cell growth at 8 uM incubated for 72 hrs by CCK-8 assay relative to control; assay type: functional; settings: SMMC-7721, 72 h
[24] = test system: SMMC-7721; assay: Induction of apoptosis in human SMMC7721 cells assessed as early apoptotic cells at 4 uM incubated for 48 hrs by Annexin-V-FITC/propidium iodide staining based flow cytometry (Rvb=2.88%); assay type: functional
[25] = test system: HeLa; assay: Antiproliferative activity against human HeLa cells assessed as reduction in cell growth at 2 uM incubated for 72 hrs by CCK-8 assay relative to control; assay type: functional
[26] = test system: SMMC-7721; assay: Cell cycle arrest in human SMMC7721 cells assessed as accumulation at S phase at 4 uM incubated for 48 hrs by propidium iodide staining based flow cytometry (Rvb=6.83%); assay type: functional
[27] = test system: A-375; assay: Antiproliferative activity against human A375 cells assessed as reduction in cell growth at 2 uM incubated for 72 hrs by CCK-8 assay relative to control; assay type: functional; settings: A-375, 72 h
[28] = test system: HeLa; assay: Antiproliferative activity against human HeLa cells assessed as reduction in cell growth at 8 uM incubated for 72 hrs by CCK-8 assay relative to control; assay type: functional
[29] = test system: SMMC-7721; assay: Cell cycle arrest in human SMMC7721 cells assessed as accumulation at G0/G1 phase at 4 uM incubated for 48 hrs by propidium iodide staining based flow cytometry (Rvb=77%); assay type: functional
[30] = test system: SMMC-7721; assay: Cell cycle arrest in human SMMC7721 cells assessed as accumulation at G2/M phase at 0.25 uM incubated for 48 hrs by propidium iodide staining based flow cytometry (Rvb=16.17%); assay type: functional
[31] = test system: SMMC-7721; assay: Cell cycle arrest in human SMMC7721 cells assessed as accumulation at G2/M phase at 1 uM incubated for 48 hrs by propidium iodide staining based flow cytometry (Rvb=16.17%); assay type: functional
[32] = test system: A549; assay: Antitumor activity against human A549 cells xenografted in BALB/C mouse assessed as tumor growth inhibition at 25 mg/kg, ip bid for 21 days measured at 3 days interval during compound dosing relative to control; assay type: functional; settings: read-out: TGI
[33] = test system: SMMC-7721; assay: Induction of apoptosis in human SMMC7721 cells assessed as late apoptotic cells at 1 uM incubated for 48 hrs by Annexin-V-FITC/propidium iodide staining based flow cytometry (Rvb=1.73%); assay type: functional
[34] = test system: SMMC-7721; assay: Induction of apoptosis in human SMMC7721 cells assessed as late apoptotic cells at 0.25 uM incubated for 48 hrs by Annexin-V-FITC/propidium iodide staining based flow cytometry (Rvb=1.73%); assay type: functional
[35] = test system: A549; assay: Antiproliferative activity against human A549 cells assessed as reduction in cell growth at 8 uM incubated for 72 hrs by CCK-8 assay relative to control; assay type: functional; settings: A549, 72 h
[36] = test system: A-375; assay: Antiproliferative activity against human A375 cells assessed as reduction in cell growth incubated for 72 hrs by CCK-8 assay; assay type: functional, cell-based; settings: A-375, 72 h
[37] = molecular target: Histone deacetylase 2 (Homo sapiens, UniProt Q92769); assay: Inhibition of human recombinant His-tagged HDAC2 ([…]) expressed in baculovirus infected insect cells using FLUOR DE LYS Green as substrate preincubated for 10 mins followed by substrate addition and measured after 30 mins by fluorescence method
Sequence of Histone deacetylase 2 (Q92769 whole entry): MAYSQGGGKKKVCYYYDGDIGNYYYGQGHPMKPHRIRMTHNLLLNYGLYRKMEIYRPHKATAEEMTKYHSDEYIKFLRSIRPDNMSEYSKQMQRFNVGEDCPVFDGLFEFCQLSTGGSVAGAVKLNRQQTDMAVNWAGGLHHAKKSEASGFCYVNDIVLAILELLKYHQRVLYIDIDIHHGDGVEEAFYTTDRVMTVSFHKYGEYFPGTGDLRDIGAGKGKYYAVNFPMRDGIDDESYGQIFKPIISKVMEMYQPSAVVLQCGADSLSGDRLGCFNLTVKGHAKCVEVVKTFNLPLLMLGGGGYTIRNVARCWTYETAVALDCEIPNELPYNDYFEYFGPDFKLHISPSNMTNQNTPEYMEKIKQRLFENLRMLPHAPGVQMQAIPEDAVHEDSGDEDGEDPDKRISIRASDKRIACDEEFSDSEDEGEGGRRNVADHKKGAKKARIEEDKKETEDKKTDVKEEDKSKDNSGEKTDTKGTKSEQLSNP

SMILES	inhibition at 8 µM [1]	Activity [2]	Activity [3]	inhibition at 2 µM [4]	viability at 4 µM [5]	Activity [6]	IC50 [7]	inhibition at 2 µM [8]	Activity [9]	IC50 [10]	Activity [11]	Activity [12]	viability at 0.25 µM [13]	Activity [14]	Activity [15]	Activity [16]	IC50 [17]	Activity [18]	Activity [19]	inhibition at 8 µM [20]	other results
CC(=O)Nc1ccc(C(=O)Nc2ccccc2N)cc1 [TACEDINALINE]	33.5%	1.55%	76.9%	23.5%	65.7%	4.85%	> 32 µM	23.5%	4.7%	9.05 µM	1.74%	75.86%	88.4%	4.99%	17.41%	15.37%	18.8 µM	18.21%	19.3%	44%	viability at 1 µM [21]: 86.5%; inhibition at 2 µM [22]: 13%; inhibition at 8 µM [23]: 29.1%; Activity [24]: 10.2%; inhibition at 2 µM [25]: 13.4%; Activity [26]: 11.67%; inhibition at 2 µM [27]: 13.4%; inhibition at 8 µM [28]: 32.4%; Activity [29]: 70.12%; Activity [30]: 7.73%; Activity [31]: 6.73%; inhibition in vivo at 25 mg/kg [32]: 46.8%; Activity [33]: 6.72%; Activity [34]: 5.37%; inhibition at 8 µM [35]: 29.1%
Nc1ccc(F)cc1NC(=O)c1ccc(CNC(=O)/C=C/c2cccnc2)cc1	63.6%	1.77%	77.96%	8%	61.6%	4.08%	> 26 µM	42.1%	5.74%	2.37 µM	2.34%	76.44%	88.6%	5.09%	13.16%	13.28%	12.6 µM	9.69%	19.1%	87.4%	IC50 [36]: 4.21 µM; IC50 [37]: 0.31 µM; viability at 1 µM [21]: 84.7%; inhibition at 2 µM [22]: 61.1%; inhibition at 8 µM [23]: 58.9%; Activity [24]: 15.2%; inhibition at 2 µM [25]: 13.4%; Activity [26]: 13.53%; inhibition at 2 µM [27]: 27.6%; inhibition at 8 µM [28]: 52%; Activity [29]: 76.78%; Activity [30]: 8.76%; Activity [31]: 10.4%; Activity [33]: 7.88%; Activity [34]: 3.88%; inhibition at 8 µM [35]: 25.5%
